Laboratory results published in patent US20080009418A1, “Selective Inhibitors” (Alchemia LTD., priority 2004, published 2008).

What was measured:
Conditions in all cases: compound at 10 μM
Human melanocortin (MC5) = molecular target: T1, Human melanocortin (MC5) (Homo sapiens, UniProt P33032); test: Radioligand binding, human melanocortin MC5 membranes, FlashPlate, [125I]-NDP-αMSH
T1 construct: purchased Perkin Elmer Biosignal
Procedure, shortened: (§1)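 Cloned human receptor membranes were coated onto FlashPlate wells and incubated with radioligand and compound (added from a 0.5 mM DMSO daughter plate) for 1 hour at room temperature in the dark. Scintillation counting gave percent inhibition, with DMSO defining total and reference ligand defining non-specific binding.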

Mouse urotensin (mUR2) = molecular target: T2, Mouse urotensin (mUR2) (Mus musculus, UniProt Q8VIH9); test: Radioligand binding, mouse urotensin mUR2 membranes, FlashPlate, [125I]-Urotensin II
T2 construct: purchased Perkin Elmer Biosignal
T2 sequence (Q8VIH9 1-385): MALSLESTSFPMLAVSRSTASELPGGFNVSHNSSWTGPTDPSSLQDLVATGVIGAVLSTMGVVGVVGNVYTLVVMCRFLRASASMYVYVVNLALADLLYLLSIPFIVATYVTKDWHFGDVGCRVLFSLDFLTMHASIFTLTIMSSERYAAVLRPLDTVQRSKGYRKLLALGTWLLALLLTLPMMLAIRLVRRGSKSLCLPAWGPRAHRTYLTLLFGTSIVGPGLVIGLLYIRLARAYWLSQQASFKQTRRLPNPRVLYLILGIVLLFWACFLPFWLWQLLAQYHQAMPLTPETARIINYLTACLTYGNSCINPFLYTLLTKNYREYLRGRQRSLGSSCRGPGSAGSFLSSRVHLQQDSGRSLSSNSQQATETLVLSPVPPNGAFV
Procedure, shortened: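 Cloned mouse urotensin (mUR2) receptor membranes from Perkin Elmer Biosignal were immobilized in FlashPlate microplates using a proprietary coating. Each well got 19.5 μl buffer, then 0.5 μl of DMSO, reference ligand, or compound. Adding 5 μl of [125I]-Urotensin II, diluted to 5× final concentration in binding buffer, started binding. Plates were sealed with TopSeal-A and incubated 1 hour at room temperature in the dark. Wells were counted for 30 seconds each on a TopCount after a 60-second delay, and percentage inhibition was calculated.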

Human δ-opioid (DOP) = molecular target: T3, Human δ-opioid (DOP) (Homo sapiens, UniProt P41143); test: Radioligand binding, human δ-opioid (DOP) membranes, FlashPlate, [3H]-Bremazocine
T3 construct: purchased Perkin Elmer Biosignal
Procedure, shortened: as §1

Human Melanocortin (MC3) = molecular target: T4, Human Melanocortin (MC3) (Homo sapiens, UniProt P41968); test: Radioligand binding, human melanocortin MC3 membranes, FlashPlate, [125I]-NDP-αMSH
T4 construct: purchased Perkin Elmer Biosignal
Procedure, shortened: as §1

Human μ-opioid (MOP) = molecular target: T5, Human μ-opioid (MOP) (Homo sapiens, UniProt P35372); test: Radioligand binding, human μ-opioid (MOP) membranes, FlashPlate, [3H]-Naloxone
T5 construct: purchased Perkin Elmer Biosignal
Procedure, shortened: as §1

Human Melanocortin (MC4) = molecular target: T6, Human Melanocortin (MC4) (Homo sapiens, UniProt P32245); test: Radioligand binding, human melanocortin MC4 membranes, FlashPlate, [125I]-NDP-αMSH
T6 construct: purchased Perkin Elmer Biosignal
Procedure, shortened: as §1

[1] = molecular target: T7, Human neuropeptide Y (NPY-Y1) (Homo sapiens, UniProt P25929); test: Radioligand binding, human neuropeptide Y NPY-Y1 membranes, FlashPlate, [125I]-PYY
T7 construct: purchased Perkin Elmer Biosignal
T7 sequence (P25929 1-384): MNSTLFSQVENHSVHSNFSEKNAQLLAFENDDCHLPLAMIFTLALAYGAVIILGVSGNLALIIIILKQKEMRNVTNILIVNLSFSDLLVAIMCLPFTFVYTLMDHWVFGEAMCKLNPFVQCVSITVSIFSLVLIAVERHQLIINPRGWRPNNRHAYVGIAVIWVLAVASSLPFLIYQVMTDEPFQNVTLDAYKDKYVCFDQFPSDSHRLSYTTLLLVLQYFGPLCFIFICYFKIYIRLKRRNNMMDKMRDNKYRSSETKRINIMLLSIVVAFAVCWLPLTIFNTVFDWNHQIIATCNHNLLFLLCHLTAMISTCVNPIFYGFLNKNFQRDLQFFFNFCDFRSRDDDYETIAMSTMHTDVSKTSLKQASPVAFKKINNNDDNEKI
Procedure, shortened: as §1

Human neurokinin (NK1) = molecular target: T8, Human neurokinin (NK1) (Homo sapiens, UniProt P25103); test: Radioligand binding, human neurokinin NK1 membranes, filtration, [125I]-Substance P
T8 construct: purchased Perkin Elmer Biosignal
Procedure, shortened: (§2)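 Membranes from cloned human receptors were incubated with compound and radioligand for 1 hour at room temperature. Bound ligand was collected on 0.3% PEI-soaked filters, washed with cold 50 mM Tris-HCl pH 7.4, and counted by scintillation. Percent inhibition was computed against DMSO totals and reference-ligand nonspecific wells.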

Human κ-Opioid (KOP) = molecular target: T9, Human κ-Opioid (KOP) (Homo sapiens, UniProt P41145); test: Radioligand binding, human κ-opioid (KOP) membranes, filtration, [3H]-Diprenorphine
T9 construct: purchased Perkin Elmer Biosignal
Procedure, shortened: as §2

Human opioid (ORL1) = molecular target: T10, Human opioid (ORL1) (Homo sapiens, UniProt P41146); test: Radioligand binding, human opioid ORL1 membranes, FlashPlate, [125I]-Nociceptin
T10 construct: purchased Perkin Elmer Biosignal
Procedure, shortened: as §1

[2] = molecular target: T11, Human melanin-concentrating hormone (MCH1) (Homo sapiens, UniProt Q99705); test: Radioligand binding, human melanin-concentrating hormone MCH1 membranes, FlashPlate, [125I]-S36057
T11 construct: purchased Perkin Elmer Biosignal
Procedure, shortened: as §1

T5 sequence (P35372 whole entry): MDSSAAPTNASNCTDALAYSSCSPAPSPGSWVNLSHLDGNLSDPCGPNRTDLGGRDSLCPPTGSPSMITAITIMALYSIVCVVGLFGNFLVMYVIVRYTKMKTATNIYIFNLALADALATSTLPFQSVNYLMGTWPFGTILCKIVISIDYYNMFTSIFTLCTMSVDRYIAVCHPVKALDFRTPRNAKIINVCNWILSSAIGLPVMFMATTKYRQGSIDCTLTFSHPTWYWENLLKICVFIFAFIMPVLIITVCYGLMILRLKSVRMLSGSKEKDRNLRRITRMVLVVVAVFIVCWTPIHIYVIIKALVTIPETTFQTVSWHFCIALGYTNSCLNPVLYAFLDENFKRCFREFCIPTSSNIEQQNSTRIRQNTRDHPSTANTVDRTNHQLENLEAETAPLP
T1 sequence (P33032 whole entry): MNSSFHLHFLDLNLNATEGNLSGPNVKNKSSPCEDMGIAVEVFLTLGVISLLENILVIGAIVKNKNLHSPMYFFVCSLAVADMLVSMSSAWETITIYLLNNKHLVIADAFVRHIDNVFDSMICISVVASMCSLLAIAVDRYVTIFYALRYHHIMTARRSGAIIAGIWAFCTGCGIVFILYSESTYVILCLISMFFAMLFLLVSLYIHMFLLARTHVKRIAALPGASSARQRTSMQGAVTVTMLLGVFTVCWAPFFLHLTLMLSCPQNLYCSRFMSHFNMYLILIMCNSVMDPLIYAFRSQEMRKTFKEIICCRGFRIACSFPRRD
T4 sequence (P41968 whole entry): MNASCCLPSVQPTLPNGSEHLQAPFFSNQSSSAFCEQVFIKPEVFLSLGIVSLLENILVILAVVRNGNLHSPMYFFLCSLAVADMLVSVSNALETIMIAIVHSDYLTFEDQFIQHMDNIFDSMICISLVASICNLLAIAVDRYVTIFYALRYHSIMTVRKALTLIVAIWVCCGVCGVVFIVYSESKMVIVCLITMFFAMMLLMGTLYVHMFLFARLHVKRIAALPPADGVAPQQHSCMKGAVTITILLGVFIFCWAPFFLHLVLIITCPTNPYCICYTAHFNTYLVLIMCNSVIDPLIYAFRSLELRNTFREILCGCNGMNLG
T10 sequence (P41146 whole entry): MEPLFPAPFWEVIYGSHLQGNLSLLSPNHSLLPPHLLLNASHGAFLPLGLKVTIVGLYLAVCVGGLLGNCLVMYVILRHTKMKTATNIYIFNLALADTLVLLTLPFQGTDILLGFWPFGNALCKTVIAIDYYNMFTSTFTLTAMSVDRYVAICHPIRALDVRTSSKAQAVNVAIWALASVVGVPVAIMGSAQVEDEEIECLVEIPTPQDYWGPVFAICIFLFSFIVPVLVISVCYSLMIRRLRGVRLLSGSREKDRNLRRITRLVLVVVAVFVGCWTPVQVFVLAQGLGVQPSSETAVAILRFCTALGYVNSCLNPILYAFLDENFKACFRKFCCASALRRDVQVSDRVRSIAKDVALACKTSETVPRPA
T6 sequence (P32245 whole entry): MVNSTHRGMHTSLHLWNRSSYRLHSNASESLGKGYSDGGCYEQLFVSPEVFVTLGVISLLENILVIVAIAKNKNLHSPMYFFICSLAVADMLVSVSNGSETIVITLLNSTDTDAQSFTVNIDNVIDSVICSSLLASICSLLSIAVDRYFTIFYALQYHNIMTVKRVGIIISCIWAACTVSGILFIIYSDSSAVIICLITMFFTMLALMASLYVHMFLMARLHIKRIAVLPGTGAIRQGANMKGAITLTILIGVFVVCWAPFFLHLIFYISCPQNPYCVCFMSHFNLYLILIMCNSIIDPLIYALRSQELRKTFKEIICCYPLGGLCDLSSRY
T11 sequence (Q99705 whole entry): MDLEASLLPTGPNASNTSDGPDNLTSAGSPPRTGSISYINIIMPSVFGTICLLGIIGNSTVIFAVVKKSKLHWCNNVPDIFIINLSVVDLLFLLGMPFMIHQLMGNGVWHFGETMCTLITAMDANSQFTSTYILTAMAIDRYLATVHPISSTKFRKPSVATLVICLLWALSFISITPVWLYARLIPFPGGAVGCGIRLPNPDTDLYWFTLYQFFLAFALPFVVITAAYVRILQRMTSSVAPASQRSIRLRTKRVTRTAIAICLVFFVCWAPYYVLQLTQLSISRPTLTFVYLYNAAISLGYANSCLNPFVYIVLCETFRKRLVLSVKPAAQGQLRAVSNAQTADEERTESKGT
T8 sequence (P25103 whole entry): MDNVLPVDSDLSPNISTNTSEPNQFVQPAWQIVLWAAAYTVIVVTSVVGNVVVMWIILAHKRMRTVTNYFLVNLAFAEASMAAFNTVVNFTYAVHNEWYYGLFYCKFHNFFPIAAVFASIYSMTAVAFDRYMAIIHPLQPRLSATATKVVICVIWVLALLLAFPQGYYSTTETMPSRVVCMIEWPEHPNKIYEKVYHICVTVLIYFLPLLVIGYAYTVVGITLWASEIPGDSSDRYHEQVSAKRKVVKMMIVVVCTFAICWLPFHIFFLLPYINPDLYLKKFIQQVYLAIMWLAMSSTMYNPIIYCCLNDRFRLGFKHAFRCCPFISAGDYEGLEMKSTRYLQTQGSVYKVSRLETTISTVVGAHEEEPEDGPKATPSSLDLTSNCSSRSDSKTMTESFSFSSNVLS
T9 sequence (P41145 whole entry): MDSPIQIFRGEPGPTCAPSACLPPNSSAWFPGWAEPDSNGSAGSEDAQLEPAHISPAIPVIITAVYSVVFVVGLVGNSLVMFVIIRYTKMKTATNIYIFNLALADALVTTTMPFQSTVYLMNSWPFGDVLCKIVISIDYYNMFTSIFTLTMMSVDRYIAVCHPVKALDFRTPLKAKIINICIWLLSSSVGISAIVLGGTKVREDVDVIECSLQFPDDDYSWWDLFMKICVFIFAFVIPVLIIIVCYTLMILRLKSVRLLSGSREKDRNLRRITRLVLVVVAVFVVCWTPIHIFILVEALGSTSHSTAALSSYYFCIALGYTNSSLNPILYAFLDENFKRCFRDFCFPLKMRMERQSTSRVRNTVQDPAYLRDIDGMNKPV
T3 sequence (P41143 whole entry): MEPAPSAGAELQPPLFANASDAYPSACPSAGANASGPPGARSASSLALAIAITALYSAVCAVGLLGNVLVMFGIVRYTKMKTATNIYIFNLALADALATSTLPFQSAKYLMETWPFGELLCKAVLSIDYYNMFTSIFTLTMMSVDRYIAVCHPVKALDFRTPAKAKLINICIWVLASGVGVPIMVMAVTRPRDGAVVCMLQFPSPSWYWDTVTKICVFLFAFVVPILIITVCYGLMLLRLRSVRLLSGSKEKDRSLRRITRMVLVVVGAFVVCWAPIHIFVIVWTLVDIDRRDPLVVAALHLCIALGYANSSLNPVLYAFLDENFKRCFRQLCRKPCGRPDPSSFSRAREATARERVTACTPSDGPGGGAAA

NCCCC(=O)NC1C(OCc2ccc3ccccc3c2)OC(COCc2ccc(Cl)cc2)C(O)C1OCc1ccc2ccccc2c1 (single isomer, unassigned) [compound 463]
A5: inhibition of radioligand binding (Human melanocortin (MC5); [125I]-NDP-αMSH, human MC5 membranes): + (“+” indicates greater than 50% inhibition at 10 μM)
A11: inhibition of radioligand binding (Mouse urotensin (mUR2); [125I]-Urotensin II, mouse mUR2 membranes): − (“−” indicates less than 50% inhibition at 10 μM)
A1: inhibition of radioligand binding (Human δ-opioid (DOP); [3H]-Bremazocine, human DOP membranes): − (“−” indicates less than 50% inhibition at 10 μM)
A3: inhibition of radioligand binding (Human Melanocortin (MC3); [125I]-NDP-αMSH, human MC3 membranes): + (“+” indicates greater than 50% inhibition at 10 μM)
A7: inhibition of radioligand binding (Human μ-opioid (MOP); [3H]-Naloxone, human MOP membranes): − (“−” indicates less than 50% inhibition at 10 μM)
A4: inhibition of radioligand binding (Human Melanocortin (MC4); [125I]-NDP-αMSH, human MC4 membranes): + (“+” indicates greater than 50% inhibition at 10 μM)
A9: inhibition of radioligand binding ([1]; [125I]-PYY, human NPY-Y1 membranes): − (“−” indicates less than 50% inhibition at 10 μM)
A8: inhibition of radioligand binding (Human neurokinin (NK1); [125I]-Substance P, human NK1 membranes): + (“+” indicates greater than 50% inhibition at 10 μM)
A2: inhibition of radioligand binding (Human κ-Opioid (KOP); [3H]-Diprenorphine, human KOP membranes, 10 µM): + (“+” indicates greater than 50% inhibition at 10 μM)
A10: inhibition of radioligand binding (Human opioid (ORL1); [125I]-Nociceptin, human ORL1 membranes, 10 µM): − (“−” indicates less than 50% inhibition at 10 μM)
A6: inhibition of radioligand binding ([2]; [125I]-S36057, human MCH1 membranes, 10 µM): + (“+” indicates greater than 50% inhibition at 10 μM)

CSC1OC(COCc2cccc(N)c2)C(O)C(OCc2ccccc2)C1NC(=O)Cc1ccccc1 (stereo not shown) [compound 325]
A5: inhibition of radioligand binding, human melanocortin (MC5) (Human melanocortin (MC5); [125I]-NDP-αMSH, 10 µM): + (“+” indicates greater than 50% inhibition at 10 μM)
A11: inhibition of radioligand binding, mouse urotensin (mUR2) (Mouse urotensin (mUR2); [125I]-Urotensin II): − (“−” indicates less than 50% inhibition at 10 μM)
A1: inhibition of radioligand binding, human δ-opioid (DOP) (Human δ-opioid (DOP); [3H]-Bremazocine): − (“−” indicates less than 50% inhibition at 10 μM)
A3: inhibition of radioligand binding, human melanocortin (MC3) (Human Melanocortin (MC3); [125I]-NDP-αMSH): − (“−” indicates less than 50% inhibition at 10 μM)
A7: inhibition of radioligand binding, human μ-opioid (MOP) (Human μ-opioid (MOP); [3H]-Naloxone): − (“−” indicates less than 50% inhibition at 10 μM)
A4: inhibition of radioligand binding, human melanocortin (MC4) (Human Melanocortin (MC4); [125I]-NDP-αMSH): − (“−” indicates less than 50% inhibition at 10 μM)
A9: inhibition of radioligand binding, human neuropeptide Y (NPY-Y1) ([1]; [125I]-PYY): − (“−” indicates less than 50% inhibition at 10 μM)
A8: inhibition of radioligand binding, human neurokinin (NK1) (Human neurokinin (NK1); [125I]-Substance P): + (“+” indicates greater than 50% inhibition at 10 μM)
A2: inhibition of radioligand binding, human κ-opioid (KOP) (Human κ-Opioid (KOP); [3H]-Diprenorphine): − (“−” indicates less than 50% inhibition at 10 μM)
A10: inhibition of radioligand binding, human opioid (ORL1) (Human opioid (ORL1); [125I]-Nociceptin): − (“−” indicates less than 50% inhibition at 10 μM)
A6: inhibition of radioligand binding, human melanin-concentrating hormone (MCH1) ([2]; [125I]-S36057): − (“−” indicates less than 50% inhibition at 10 μM)

COC[C@H]1OC(OCCc2ccccc2)[C@H](NC(=O)CCNC(=N)N)[C@@H](OCc2ccc(-c3ccccc3)cc2)[C@@H]1O (stereo partly shown) [compound 41]
A5 radioligand binding inhibition (Human melanocortin (MC5); human melanocortin MC5 membranes): + (“+” indicates greater than 50% inhibition at 10 μM)
A11 radioligand binding inhibition (Mouse urotensin (mUR2); mouse urotensin mUR2 membranes): − (“−” indicates less than 50% inhibition at 10 μM)
A1 radioligand binding inhibition (Human δ-opioid (DOP); human δ-opioid (DOP) membranes): − (“−” indicates less than 50% inhibition at 10 μM)
A3 radioligand binding inhibition (Human Melanocortin (MC3); human melanocortin MC3 membranes): − (“−” indicates less than 50% inhibition at 10 μM)
A7 radioligand binding inhibition (Human μ-opioid (MOP); human μ-opioid (MOP) membranes): − (“−” indicates less than 50% inhibition at 10 μM)
A4 radioligand binding inhibition (Human Melanocortin (MC4); human melanocortin MC4 membranes): + (“+” indicates greater than 50% inhibition at 10 μM)
A9 radioligand binding inhibition ([1]; human NPY-Y1 membranes): − (“−” indicates less than 50% inhibition at 10 μM)
A8 radioligand binding inhibition (Human neurokinin (NK1); human neurokinin NK1 membranes): + (“+” indicates greater than 50% inhibition at 10 μM)
A2 radioligand binding inhibition (Human κ-Opioid (KOP); human κ-opioid (KOP) membranes): − (“−” indicates less than 50% inhibition at 10 μM)
A10 radioligand binding inhibition (Human opioid (ORL1); human ORL1 membranes): − (“−” indicates less than 50% inhibition at 10 μM)
A6 radioligand binding inhibition ([2]; human MCH1 membranes): + (“+” indicates greater than 50% inhibition at 10 μM)

CSC1O[C@H](COCc2ccc3ccccc3c2)[C@@H](O)[C@@H](OCc2ccc(-c3ccccc3)cc2)[C@H]1NC(=O)CN (stereo partly shown) [compound 295]
A5: inhibition of radioligand binding, human melanocortin (MC5) (Human melanocortin (MC5); [125I]-NDP-αMSH): − (“−” indicates less than 50% inhibition at 10 μM)
A11: inhibition of radioligand binding, mouse urotensin (mUR2) (Mouse urotensin (mUR2); [125I]-Urotensin II): − (“−” indicates less than 50% inhibition at 10 μM)
A1: inhibition of radioligand binding, human δ-opioid (DOP) (Human δ-opioid (DOP); [3H]-Bremazocine): − (“−” indicates less than 50% inhibition at 10 μM)
A3: inhibition of radioligand binding, human melanocortin (MC3) (Human Melanocortin (MC3); [125I]-NDP-αMSH): − (“−” indicates less than 50% inhibition at 10 μM)
A7: inhibition of radioligand binding, human μ-opioid (MOP) (Human μ-opioid (MOP); [3H]-Naloxone): − (“−” indicates less than 50% inhibition at 10 μM)
A4: inhibition of radioligand binding, human melanocortin (MC4) (Human Melanocortin (MC4); [125I]-NDP-αMSH): − (“−” indicates less than 50% inhibition at 10 μM)
A9: inhibition of radioligand binding, human neuropeptide Y (NPY-Y1) ([1]; [125I]-PYY): − (“−” indicates less than 50% inhibition at 10 μM)
A8: inhibition of radioligand binding, human neurokinin (NK1) (Human neurokinin (NK1); [125I]-Substance P): + (“+” indicates greater than 50% inhibition at 10 μM)
A2: inhibition of radioligand binding, human κ-opioid (KOP) (Human κ-Opioid (KOP); [3H]-Diprenorphine): − (“−” indicates less than 50% inhibition at 10 μM)
A10: inhibition of radioligand binding, human opioid (ORL1) (Human opioid (ORL1); [125I]-Nociceptin): − (“−” indicates less than 50% inhibition at 10 μM)
A6: inhibition of radioligand binding, human melanin-concentrating hormone (MCH1) ([2]; [125I]-S36057): − (“−” indicates less than 50% inhibition at 10 μM)

CO[C@H]1[C@H](O)[C@@H](COCc2cccc(O)c2)OC(OCc2ccc(-c3ccccc3)cc2)[C@@H]1NC(=O)CCCNC(=N)N (stereo partly shown) [compound 149]
A5 radioligand binding, percentage inhibition (Human melanocortin (MC5); [125I]-NDP-αMSH): − (“−” indicates less than 50% inhibition at 10 μM)
A11 radioligand binding, percentage inhibition (Mouse urotensin (mUR2); [125I]-Urotensin II): − (“−” indicates less than 50% inhibition at 10 μM)
A1 radioligand binding, percentage inhibition (Human δ-opioid (DOP); [3H]-Bremazocine): − (“−” indicates less than 50% inhibition at 10 μM)
A3 radioligand binding, percentage inhibition (Human Melanocortin (MC3); [125I]-NDP-αMSH): − (“−” indicates less than 50% inhibition at 10 μM)
A7 radioligand binding, percentage inhibition (Human μ-opioid (MOP); [3H]-Naloxone): + (“+” indicates greater than 50% inhibition at 10 μM)
A4 radioligand binding, percentage inhibition (Human Melanocortin (MC4); [125I]-NDP-αMSH): − (“−” indicates less than 50% inhibition at 10 μM)
A9 radioligand binding, percentage inhibition ([1]; [125I]-PYY): − (“−” indicates less than 50% inhibition at 10 μM)
A8 radioligand binding, percentage inhibition (Human neurokinin (NK1); [125I]-Substance P): + (“+” indicates greater than 50% inhibition at 10 μM)
A2 radioligand binding, percentage inhibition (Human κ-Opioid (KOP); [3H]-Diprenorphine): − (“−” indicates less than 50% inhibition at 10 μM)
A10 radioligand binding, percentage inhibition (Human opioid (ORL1); [125I]-Nociceptin): − (“−” indicates less than 50% inhibition at 10 μM)
A6 radioligand binding, percentage inhibition ([2]; [125I]-S36057): − (“−” indicates less than 50% inhibition at 10 μM)
